Data as given in patent publication US7495003B2, “8-(3-amino-piperidin-1-yl)-7-(but-2-ynyl)-xanthines, the preparation thereof and their use as pharmaceutical compositions” (Boehringer Ingelheim International GmbH, priority 2004, dated 2009).
pIC50: −log10 of the molar value.

Columns and labels:
[1] = biological target: T1, DPP-IV (Homo sapiens, UniProt P27487); experiment: DPP-IV assay with extract of Caco-2 cells as DPP IV source (AFC substrate, fluorescence); format: biochemical; conditions: extract of human colon carcinoma cell line Caco-2; substrate 100 μM; 60 minutes at ambient temperature; read-out: DPP IV inhibition IC50
T1 construct: an extract of the human colon carcinoma cell line Caco-2 is used as the DPP IV source; endogenous in cells; host or cells: Caco-2 (human colon carcinoma), differentiated to induce DPP-IV expression; Nonidet-P40 solubilised extract
T1 sequence (P27487 whole entry): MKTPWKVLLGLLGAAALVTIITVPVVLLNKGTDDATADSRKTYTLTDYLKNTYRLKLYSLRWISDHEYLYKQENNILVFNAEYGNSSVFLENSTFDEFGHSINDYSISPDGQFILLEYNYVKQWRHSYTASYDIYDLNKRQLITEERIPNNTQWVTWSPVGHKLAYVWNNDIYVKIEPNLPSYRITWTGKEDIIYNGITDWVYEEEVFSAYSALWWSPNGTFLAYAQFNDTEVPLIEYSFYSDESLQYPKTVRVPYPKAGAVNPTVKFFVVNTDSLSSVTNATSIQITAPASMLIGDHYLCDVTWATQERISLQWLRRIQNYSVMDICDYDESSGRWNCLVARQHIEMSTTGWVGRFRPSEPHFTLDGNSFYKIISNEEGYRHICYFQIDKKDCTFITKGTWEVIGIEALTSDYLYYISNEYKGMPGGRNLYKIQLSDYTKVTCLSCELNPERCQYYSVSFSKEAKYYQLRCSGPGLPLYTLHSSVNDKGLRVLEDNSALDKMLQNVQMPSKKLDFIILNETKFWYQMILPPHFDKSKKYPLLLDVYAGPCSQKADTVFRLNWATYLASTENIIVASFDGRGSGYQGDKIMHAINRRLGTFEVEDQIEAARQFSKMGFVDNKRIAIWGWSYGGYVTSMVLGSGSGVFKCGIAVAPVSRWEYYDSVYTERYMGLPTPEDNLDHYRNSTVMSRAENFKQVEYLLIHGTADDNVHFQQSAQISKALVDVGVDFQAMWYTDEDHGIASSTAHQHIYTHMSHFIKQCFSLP
Protocol: The differentiation of the cells in order to induce the DPP-IV expression was carried out in accordance with the description by Reiher et al. in an article entitled “Increased expression of intestinal cell line Caco-2”, which appeared in Proc. Natl. Acad. Sci. Vol. 90, pp. 5757-5761 (1993). The cell extract was obtained from cells solubilised in a buffer (10 mM Tris HCl, 0.15 M NaCl, 0.04 t.i.u. aprotinin, 0.5% Nonidet-P40, pH 8.0) by centrifugation at 35,000 g for 30 minutes at 4° C. (to remove cell debris).
The DPP-IV assay was carried out as follows:
50 μl of substrate solution (AFC; AFC is amido-4-trifluoromethylcoumarin), final concentration 100 μM, were placed in black microtitre plates. 20 μl of assay buffer (final concentrations 50 mM Tris HCl pH 7.8, 50 mM NaCl, 1% DMSO) was pipetted in. The reaction was started by the addition of 30 μl of solubilised Caco-2 protein (final concentration 0.14 μg of protein per well). The test substances under investigation were typically added prediluted to 20 μl, while the volume of assay buffer was then reduced accordingly. […] Then the fluorescence was measured in a Victor 1420 Multilabel Counter, with the excitation wavelength at 405 nm and the emission wavelength at 535 nm. […] The potency of the test substances in question, expressed as IC50 values, were calculated from dosage/activity curves consisting of 11 measured points in each case.

[2] = system: rats; experiment: Tolerability in rats after oral administration; format: in vivo; conditions: oral administration of 10 mg/kg

Row | SMILES | pIC50 [1] | toxic side effects [2]
1 | CC#CCn1c(N2CCC[C@@H](N)C2)nc2c1c(=O)n(Cc1nc(C)c3ccccc3n1)c(=O)n2CC(=O)OC [Example 1(2), (R)-1-(4-methyl-quinazolin-2-ylmethyl)-3-(methoxycarbonylmethyl)-7-(but-2-ynyl)-8-(3-amino-piperidin-1-yl)-xanthine] | 8.52 | no toxic side effects could be detected
2 | CC#CCn1c(N2CCC[C@@H](N)C2)nc2c1c(=O)n(Cc1nc(C)c3ccccc3n1)c(=O)n2CC(=O)OCC [1(3), (R)-1-(4-methyl-quinazolin-2-ylmethyl)-3-(ethoxycarbonylmethyl)-7-(but-2-ynyl)-8-(3-amino-piperidin-1-yl)-xanthine] | 8.52 | –
